Patent US9642859B2, “Use of capsazepine and analogs thereof to treat cancer” (THE BOARD OF REGENTS OF THE UNIVERSITY OF TEXAS SYSTEM, priority 2012, dated 2017)
“Also recorded” adds a separate entry of the source.

Columns and labels:
HSC3 cells = test: Cell viability assay of HSC3 cells, dose response curve; type: cell-based; conditions: Homo sapiens, HSC-3, HSC3 cells, FIG. 1K
Text: FIG. 1K. Cell viability assay of HSC3 cells treated with increasing concentrations of curcumin; […]

OKF6 cells = test: Cell viability assay of immortalized non-malignant oral keratinocytes; type: cell-based; conditions: 24 hours
Text: FIG. 1D-2. […] Treatment with high concentrations of CAP induces death of normal, non-malignant OKF6 cells. The effect of which was reversed by the pre-treatment with CPZ.

HSC3 = test: Cell cycle analysis by DNA profile FACS, HSC3; type: cell-based, human; conditions: 24 hours
Description: (§1) In particular, Table 1 provides additional cell cycle distribution data of OSCC cells (%) treated with 0 μM, 30 μM, 60 μM, or 90 μM CPZ for 24 hours. Data for OSCC cell lines HSC3, SCC4, and SCC25 are also provided in diagrams of FIGS. 1G-1, 1G-2, and 1G-3, respectively.

SCC4 = test: Cell cycle analysis by DNA profile FACS, SCC4; type: cell-based, human; conditions: 24 hours
Description: as §1

OSCC cell lines = test: ROS assays by flow cytometry (DCF-DA); type: cell-based, human; conditions: 30 μM capsazepine, 1 h
Description: FIGS. 1I-1 to 1I-3. Reactive oxygen species (ROS) assays. The level of ROS in OSCC cell lines was examined by flow cytometry using 2,7-dichlorodihydrofluorescein diacetate (DCFH-DA; Sigma). Approximately 3×10^5 cells were plated in 12-well plates. To detect ROS, cells were incubated for 30 min at 37° C. with DCF-DA, washed and then treated for 1 h with 30 μM capsazepine (grey, thick line), 150 μM capsaicin (grey, thin line), 30 μM capsazepine+150 μM capsaicin (black line), or vehicle control (dotted line). The cells were harvested, washed twice, and analyzed by flow cytometry.
FIGS. 1I-4(a)-(b) to 1I-6(a)-(b). Induction of ROS in OSCC cell lines. (a). ROS induction in OSCC cell lines following 1 h treatment with 30 μM CPZ (black line) compared to vehicle control. (b). ROS induction in OSCC cell lines following 1 h treatment with 30 μM CPZ is reversed by NAC co-treatment (black line) as indicated in the shift in their peaks to the left.
ROS levels in OSCC cell lines were examined by flow cytometry using 2,7-dichlorodihydrofluorescein diacetate (DCF-DA; Sigma-Aldrich, St. Louis, Mo.). Cells (3×10^5) were plated in 12-well plates and incubated for 30 min with DCF-DA at 37° C. then treated with 30 μM capsazepine using phenol free media with and without 10 mM NAC. Treated cells were incubated for 1 h at 37° C., harvested, washed twice, and analyzed by FACS.

[1] = tested on: OSCC cell lines (HSC3, SCC4, and SCC25); test: Western blot analysis of cleaved PARP; type: cell-based, human; conditions: increasing doses of CPZ, 24 h
Description: FIG. 1F. […] The Control (Ctrl) is […].
as §1

HSC3 xenografts = test: OSCC mouse xenograft model, HSC3; type: in vivo, athymic nude (nu/nu) mice; conditions: 40 μg CPZ intra-tumoral every other day
Text: Animals. Six week-old female athymic nude (nu/nu) mice were purchased from HARLAN Laboratories (Indianapolis, Ind.) and used in a laminar air-flow cabinet under pathogen-free conditions. They were provided with a 12-h light/dark schedule at controlled temperature and humidity with food and water ad libitum. Mice were allowed to acclimate for at least one week prior to the start of the experiments. All procedures were approved by the UTHSCSA (University of Texas Health Science Center—San Antonio) Institutional Animal Care and Use Committee.
OSCC Mouse Xenograft Model. Mice were injected subcutaneously in the right flank with 2×10^6 HSC3, SCC4, or SCC25 cells in 0.1 ml of sterile phosphate buffered saline (each of these cell lines is published in scientific literature). Four weeks post-inoculation, tumors had grown to an average volume of 110 mm^3. Mice were then divided into two experimental groups of five animals each, which received the following treatments as intra-tumoral injections: group A, vehicle control (7% DMSO in sterile saline); group B, CPZ treatment (40 μg). The injections were repeated every other day and for a total of at least 14 days.
Treatments. […] Mice were monitored daily for tumor growth, cachexia, and weight loss. Tumor volumes and body weight were recorded every other day. Tumor volumes were calculated by the formula: (4π/3)×(w/2)2×(l/2), where w=width and l=length. […]

[2] = tested on: OSCC cell lines (HSC3, SCC4, and SCC25)
Description: Cell viability assays reported as % of vehicle control (n=3). […] VEH=delivery vehicle control without CAP or CPZ. *p<0.05, ***p<0.001.
FIG. 1H-1: Cell viability assays of OSCC cell lines treated with 30 μM CPZ alone or in combination with 10 mM N-Acetyl-L-Cysteine (NAC) for 24 h (n=4); ***p<0.001.
Human OSCC Cell Lines. The human OSCC cell lines MDA231, PS3, SCC4 and SCC25 were obtained from ATCC (American Type Culture Collection, Rockville, Md.). The HSC3 cell line was obtained from the Japanese Cell Resource Bank (Osaka, Japan). […] Cells were maintained in DMEM (GIBCO, Carlsbad, Calif.) supplemented with 10% FBS at 37° C. in 5% CO2. Both cell lines were derived from primary OSCC tumors from the tongues of male patients in their fifth generation of life. Data regarding pertinent medical history, treatment, outcome of care and recurrence were not available.
Statistical Analysis. Statistical analyses were performed using GraphPad Prism4 (San Diego, Calif.). Experiments were performed in triplicate and results are represented as means+SD except when indicated. […] Cytotoxicity assays of cell viability were analyzed by one-way ANOVA and Bonferroni's post-hoc test (n=3).

[3] = tested on: nicotinic acetylcholine receptors; conditions: cited from earlier work

For `Oc1cc2c(cc1O)CN(C(=S)NCCc1ccc(Cl)cc1)CCC2` [CPZ, 2-[2-(4-chlorphenyl)ethylamino-thiocarbonyl]-7,8-dihydroxy-2,3,4,5-tetrahydro-1H-2-benzazepine], the IC50 (HSC3 cells) was 30 µM, the “effect of CPZ on CAP-induced reduction in cell viability” value (OKF6 cells; CAP 150 μM / CPZ 30 μM) was “reversed the effects” and the “toxicity on normal, non-malignant cells” value (OKF6 cells; CPZ 30 μM) was “non-toxic effect; also recorded: no toxicity was observed”. It also gave a G0/G1 (HSC3; HSC3, CPZ 30 μM) of 47.76%, a G2/M (HSC3; HSC3, CPZ 30 μM) of 20.3% and an S (HSC3; HSC3, CPZ 30 μM) of 13.47%. The SubG1 (HSC3; HSC3, CPZ 30 μM) was 18.47%, the G0/G1 (HSC3; HSC3, CPZ 60 μM) was 24.09% and the G2/M (HSC3; HSC3, CPZ 60 μM) was 7.37%. For the same molecule, the S (HSC3; HSC3, CPZ 60 μM) was 11.23%, the SubG1 (HSC3; HSC3, CPZ 60 μM) was 57.31% and the G0/G1 (HSC3; HSC3, CPZ 90 μM) was 23.53%. For the same molecule, the G2/M (HSC3; HSC3, CPZ 90 μM) was 5.08%, the S (HSC3; HSC3, CPZ 90 μM) was 10.27% and the SubG1 (HSC3; HSC3, CPZ 90 μM) was 61.12%. It also gave a G0/G1 (SCC4; SCC4, CPZ 30 μM) of 70.77%, a G2/M (SCC4; SCC4, CPZ 30 μM) of 12.14% and an S (SCC4; SCC4, CPZ 30 μM) of 15.08%. For the same molecule, the SubG1 (SCC4; SCC4, CPZ 30 μM) was 2.01%, the G0/G1 (SCC4; SCC4, CPZ 60 μM) was 21.03% and the G2/M (SCC4; SCC4, CPZ 60 μM) was 24.21%. It also gave an S (SCC4; SCC4, CPZ 60 μM) of 21.04%, a SubG1 (SCC4; SCC4, CPZ 60 μM) of 33.72% and a G0/G1 (SCC4; SCC4, CPZ 90 μM) of 15.61%. The G2/M (SCC4; SCC4, CPZ 90 μM) was 31.57%, the S (SCC4; SCC4, CPZ 90 μM) was 24.83% and the SubG1 (SCC4; SCC4, CPZ 90 μM) was 27.99%. The “level of ROS” value (OSCC cell lines) was “increase in ROS”, the “cleaved PARP (c-PARP, marker of apoptosis)” value [1] was “induction of cleaved PARP” and the healing of xenografts (HSC3 xenografts) was “complete healing in some treated HSC3 xenografts”. For the same molecule, the tumor volume (HSC3 xenografts; two weeks, p<0.05) was “significant reduction in tumor volume”, the cytotoxicity [2] was “significant dose dependent cytotoxicity” and the “effect on nicotinic acetylcholine receptors” value [3] was “Inhibitis”.
